Source: US10975077B2 (Novira Therapeutics, Inc., priority 2016, dated 2021)
pEC50: −log10 of the molar value.

system: HBV (encapsidated HBV DNA, HepG2.2.15 cells); experiment: HBV replication inhibition assay, BDNA assay in HepG2.2.15 cells; assay type: cell-based; conditions: Activity in BDNA-assay
Procedure, shortened: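 Encapsidated HBV DNA in DNase-treated, proteinase K-lysed supernatant was measured by branched DNA after 6 days' compound exposure, refreshed on day 3, of HepG2.2.15 cells in 0.5% DMSO. Signals normalized to DMSO-treated wells; EC50 from nonlinear regression of inhibition against log concentration.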

| Compound | pEC50 |
| --- | --- |
| CN1CC(CNCC(F)F)Cn2nc3c(c2C1=O)CN(C(=O)Nc1cc(Br)c(F)cc1F)CC3 (single isomer, unassigned) [Compound 125_E2, (S*)—N-(5-bromo-2,4-difluorophenyl)-8-(((2,2-difluoroethyl)amino)methyl)-10-methyl-11-oxo-1,3,4,7,8,9,10,11-octahydro-2H-pyrido[4′,3′:3,4]pyrazolo[1,5-a][1,4]diazepine-2-carboxamide] | 7.00 to 9.00 |
| CN1CC(CNCC(F)F)Cn2nc3c(c2C1=O)CN(C(=O)Nc1cc(Cl)c(F)cc1F)CC3 (single isomer, unassigned) [Compound 126_E2, (S*)—N-(5-chloro-2,4-difluorophenyl)-8-(((2,2-difluoroethyl)amino)methyl)-10-methyl-11-oxo-1,3,4,7,8,9,10,11-octahydro-2H-pyrido[4′,3′:3,4]pyrazolo[1,5-a][1,4]diazepine-2-carboxamide] | 6.30 to 7.00 |
| CN1CC(CNCC(F)F)Cn2nc3c(c2C1=O)CN(C(=O)Nc1ccc(F)c(C#N)c1F)CC3 (single isomer, unassigned) [Compound 127_E1, (R*)—N-(3-cyano-2,4-difluorophenyl)-8-(((2,2-difluoroethyl)amino)methyl)-10-methyl-11-oxo-1,3,4,7,8,9,10,11-octahydro-2H-pyrido[4′,3′:3,4]pyrazolo[1,5-a][1,4]diazepine-2-carboxamide] | 6.00 to 6.30 |
| CN1CC(CNCC(F)F)Cn2nc3c(c2C1=O)CN(C(=O)Nc1ccc(F)c(C#N)c1F)CC3 (single isomer, unassigned) [Compound 127_E2, (S*)—N-(3-cyano-2,4-difluorophenyl)-8-(((2,2-difluoroethyl)amino)methyl)-10-methyl-11-oxo-1,3,4,7,8,9,10,11-octahydro-2H-pyrido[4′,3′:3,4]pyrazolo[1,5-a][1,4]diazepine-2-carboxamide] | 7.00 to 9.00 |
| CN1CC(CNCC(F)F)Cn2nc3c(c2C1=O)CN(C(=O)Nc1ccc(F)c(Cl)c1F)CC3 (single isomer, unassigned) [Compound 128_E1, (R*)—N-(3-chloro-2,4-difluorophenyl)-8-(((2,2-difluoroethyl)amino)methyl)-10-methyl-11-oxo-1,3,4,7,8,9,10,11-octahydro-2H-pyrido[4′,3′:3,4]pyrazolo[1,5-a][1,4]diazepine-2-carboxamide] | 6.30 to 7.00 |
| CN1CC(CNCC(F)F)Cn2nc3c(c2C1=O)CN(C(=O)Nc1ccc(F)c(Cl)c1F)CC3 (single isomer, unassigned) [Compound 128_E2, (S*)—N-(3-chloro-2,4-difluorophenyl)-8-(((2,2-difluoroethyl)amino)methyl)-10-methyl-11-oxo-1,3,4,7,8,9,10,11-octahydro-2H-pyrido[4′,3′:3,4]pyrazolo[1,5-a][1,4]diazepine-2-carboxamide] | 7.00 to 9.00 |
| CN1CC(CNCC(F)F)Cn2nc3c(c2C1=O)CN(C(=O)Nc1ccc(F)c(Br)c1F)CC3 (single isomer, unassigned) [Compound 129_E1, (R*)—N-(3-bromo-2,4-difluorophenyl)-8-(((2,2-difluoroethyl)amino)methyl)-10-methyl-11-oxo-1,3,4,7,8,9,10,11-octahydro-2H-pyrido[4′,3′:3,4]pyrazolo[1,5-a][1,4]diazepine-2-carboxamide] | 6.30 to 7.00 |
| CN1CC(CNCC(F)F)Cn2nc3c(c2C1=O)CN(C(=O)Nc1ccc(F)c(Br)c1F)CC3 (single isomer, unassigned) [Compound 129_E2, (S*)—N-(3-bromo-2,4-difluorophenyl)-8-(((2,2-difluoroethyl)amino)methyl)-10-methyl-11-oxo-1,3,4,7,8,9,10,11-octahydro-2H-pyrido[4′,3′:3,4]pyrazolo[1,5-a][1,4]diazepine-2-carboxamide] | 7.00 to 9.00 |
| CN1CC(CNCC(F)F)Cn2nc3c(c2C1=O)CN(C(=O)Nc1ccc(F)c(Br)c1)CC3 (single isomer, unassigned) [Compound 130_E2, (S*)—N-(3-bromo-4-fluorophenyl)-8-(((2,2-difluoroethyl)amino)methyl)-10-methyl-11-oxo-1,3,4,7,8,9,10,11-octahydro-2H-pyrido[4′,3′:3,4]pyrazolo[1,5-a][1,4]diazepine-2-carboxamide] | 7.00 to 9.00 |
| CN1CC(CNCC(F)F)Cn2nc3c(c2C1=O)CN(C(=O)Nc1ccc(F)c(C(F)(F)F)c1F)CC3 (single isomer, unassigned) [Compound 131_E2, (S*)—N-(2,4-difluoro-3-(trifluoromethyl)phenyl)-8-(((2,2-difluoroethyl)amino)methyl)-10-methyl-11-oxo-1,3,4,7,8,9,10,11-octahydro-2H-pyrido[4′,3′:3,4]pyrazolo[1,5-a][1,4]diazepine-2-carboxamide] | 6.30 to 7.00 |
| C[C@@H]1Cc2nn3c(c2CN1C(=O)Nc1ccc(F)c(C(F)(F)F)c1)C(=O)N(C)CC(F)(CO)C3 (single isomer, unassigned) [Compound 133_D2, (3R,8S*)-8-fluoro-N-(4-fluoro-3-(trifluoromethyl)phenyl)-8-(hydroxymethyl)-3,10-dimethyl-11-oxo-1,3,4,7,8,9,10,11-octahydro-2H-pyrido[4′,3′:3,4]pyrazolo[1,5-a][1,4]diazepine-2-carboxamide_D2] | 7.00 to 9.00 |
| C[C@@H]1Cc2nn3c(c2CN1C(=O)Nc1ccc(F)c(C#N)c1)C(=O)N(C)CC(F)C3 (single isomer, unassigned) [Compound 137_D2, (3R,8S*)-N-(3-Cyano-4-fluorophenyl)-8-fluoro-3,10-dimethyl-11-oxo-1,3,4,7,8,9,10,11-octahydro-2H-pyrido[4′,3′:3,4]pyrazolo[1,5-a][1,4]diazepine-2-carboxamide] | 7.00 to 9.00 |

same assay, conditions: Hepatitis B virus, HepG2.2.15, Activity in BDNA-assay

| Compound | pEC50 |
| --- | --- |
| CN1CC(CNCC(F)F)Cn2nc3c(c2C1=O)CN(C(=O)Nc1cc(Cl)c(F)cc1F)CC3 (single isomer, unassigned) [Compound 126_E1, (R*)—N-(5-chloro-2,4-difluorophenyl)-8-(((2,2-difluoroethyl)amino)methyl)-10-methyl-11-oxo-1,3,4,7,8,9,10,11-octahydro-2H-pyrido[4′,3′:3,4]pyrazolo[1,5-a][1,4]diazepine-2-carboxamide] | 6.30 to 7.00 |
| CN1CC(CNCC(F)F)Cn2nc3c(c2C1=O)CN(C(=O)Nc1ccc(F)c(Br)c1)CC3 (single isomer, unassigned) [Compound 130_E1, (R*)—N-(3-bromo-4-fluorophenyl)-8-(((2,2-difluoroethyl)amino)methyl)-10-methyl-11-oxo-1,3,4,7,8,9,10,11-octahydro-2H-pyrido[4′,3′:3,4]pyrazolo[1,5-a][1,4]diazepine-2-carboxamide] | 7.00 to 9.00 |
| CN1CC(CNCC(F)F)Cn2nc3c(c2C1=O)CN(C(=O)Nc1ccc(F)c(C(F)(F)F)c1F)CC3 (single isomer, unassigned) [Compound 131_E1, (R*)—N-(2,4-difluoro-3-(trifluoromethyl)phenyl)-8-(((2,2-difluoroethyl)amino)methyl)-10-methyl-11-oxo-1,3,4,7,8,9,10,11-octahydro-2H-pyrido[4′,3′:3,4]pyrazolo[1,5-a][1,4]diazepine-2-carboxamide] | 6.30 to 7.00 |
| C[C@@H]1Cc2nn3c(c2CN1C(=O)Nc1ccc(F)c(C(F)(F)F)c1)C(=O)N(C)CC(F)(CO)C3 (single isomer, unassigned) [Compound 133_D1, (3R,8R*)-8-fluoro-N-(4-fluoro-3-(trifluoromethyl)phenyl)-8-(hydroxymethyl)-3,10-dimethyl-11-oxo-1,3,4,7,8,9,10,11-octahydro-2H-pyrido[4′,3′:3,4]pyrazolo[1,5-a][1,4]diazepine-2-carboxamide_D1] | 7.00 to 9.00 |
| C[C@@H]1Cc2nn3c(c2CN1C(=O)Nc1ccc(F)c(C#N)c1)C(=O)N(C)CC(F)C3 (single isomer, unassigned) [Compound 137_D1, (3R,8R*)—N-(3-cyano-4-fluorophenyl)-8-fluoro-3,10-dimethyl-11-oxo-1,3,4,7,8,9,10,11-octahydro-2H-pyrido[4′,3′:3,4]pyrazolo[1,5-a][1,4]diazepine-2-carboxamide_D1] | 7.00 to 9.00 |
| C[C@@H]1Cc2nn3c(c2CN1C(=O)Nc1ccc(F)c(C(F)(F)F)c1)C(=O)N(C)CC(F)C3 (single isomer, unassigned) [Compound 138, (3R,8R*)-8-fluoro-N-(4-fluoro-3-(trifluoromethyl)phenyl)-3,10-dimethyl-11-oxo-1,3,4,7,8,9,10,11-octahydro-2H-pyrido[4′,3′:3,4]pyrazolo[1,5-a][1,4]diazepine-2-carboxamide] | 7.00 to 9.00 |
| C=C1CN(C)C(=O)c2c3c(nn2C1)CCN(C(=O)Nc1ccc(F)c(Cl)c1)C3 [Compound 001, N-(3-chloro-4-fluorophenyl)-10-methyl-8-methylene-11-oxo-1,3,4,7,8,9,10,11-octahydro-2H-pyrido[4′,3′:3,4]pyrazolo[1,5-a][1,4]diazepine-2-carboxamide] | 7.00 to 9.00 |
| CN1CC(O)(CO)Cn2nc3c(c2C1=O)CN(C(=O)Nc1ccc(F)c(Cl)c1)CC3 (centres unmarked) [Compound 003] | 6.00 to 6.30 |
| CN1CC(O)Cn2nc3c(c2C1=O)CN(C(=O)Nc1ccc(F)c(Cl)c1)CC3 (centres unmarked) [Compound 004, N-(3-chloro-4-fluorophenyl)-8-hydroxy-10-methyl-11-oxo-1,3,4,7,8,9,10,11-octahydro-2H-pyrido[4′,3′:3,4]pyrazolo[1,5-a][1,4]diazepine-2-carboxamide] | 7.00 to 9.00 |
| CN1CC(F)(F)Cn2nc3c(c2C1=O)CN(C(=O)Nc1ccc(F)c(Cl)c1)CC3 [Compound 005, N-(3-chloro-4-fluorophenyl)-8,8-difluoro-10-methyl-11-oxo-1,3,4,7,8,9,10,11-octahydro-2H-pyrido[4′,3′:3,4]pyrazolo[1,5-a][1,4]diazepine-2-carboxamide] | 7.00 to 9.00 |
| CN1CC(F)Cn2nc3c(c2C1=O)CN(C(=O)Nc1ccc(F)c(Cl)c1)CC3 (centres unmarked) [Compound 006, N-(3-chloro-4-fluorophenyl)-8-fluoro-10-methyl-11-oxo-1,3,4,7,8,9,10,11-octahydro-2H-pyrido[4′,3′:3,4]pyrazolo[1,5-a][1,4]diazepine-2-carboxamide] | 7.00 to 9.00 |
